From publication PMC8566089 (Bioorganic Chemistry, 2021)
Read-outs that look alike come from different tables or passages of the source.

Key:
[1] = test system: HCT116 (colon) cancer cell line; assay: MTT antiproliferative assay, HCT116; format: cell-based; details: for IC50: Homo sapiens, HCT-116, 72 h, read-out: IC50 ± SE, HCT116; for SI (selectivity index), HCT116: IC50 of RPE1 relative to that of HCT116
VEGFR-2 [2] = biological target: T1, VEGFR-2 (Homo sapiens, UniProt P35968); assay: VEGFR-2 Western blot in MCF7; format: cell-based; details: for VEGFR2 MCF7 % Inhibition: Western blot at MTT-IC50; for VEGFR2 MCF7 RQ (relative quantification): Western blot at MTT-IC50, control RQ 3.725
COX-2 = biological target: T2, COX-2 (Homo sapiens, UniProt P35354); assay: COX-2 inhibitor screening kit; format: biochemical
T2 sequence (P35354 18-604): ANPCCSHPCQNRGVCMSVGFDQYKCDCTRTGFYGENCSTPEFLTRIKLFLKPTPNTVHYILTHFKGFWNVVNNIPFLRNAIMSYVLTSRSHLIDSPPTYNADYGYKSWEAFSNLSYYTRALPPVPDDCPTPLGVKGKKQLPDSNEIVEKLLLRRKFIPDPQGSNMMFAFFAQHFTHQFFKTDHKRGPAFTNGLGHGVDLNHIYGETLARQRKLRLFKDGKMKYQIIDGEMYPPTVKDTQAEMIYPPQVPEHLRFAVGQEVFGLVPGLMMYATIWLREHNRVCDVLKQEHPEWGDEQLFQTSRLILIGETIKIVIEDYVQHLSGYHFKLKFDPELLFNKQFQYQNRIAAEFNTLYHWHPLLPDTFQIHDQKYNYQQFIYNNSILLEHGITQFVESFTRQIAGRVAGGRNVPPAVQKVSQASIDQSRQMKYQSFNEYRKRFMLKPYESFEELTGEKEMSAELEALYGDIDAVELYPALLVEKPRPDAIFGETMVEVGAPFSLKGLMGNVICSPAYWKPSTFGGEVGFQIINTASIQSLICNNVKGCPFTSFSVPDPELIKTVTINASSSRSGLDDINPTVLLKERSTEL

EGFR [3] = biological target: T3, EGFR (Homo sapiens, UniProt P00533); assay: EGFR Western blot in HCT116; format: cell-based; details: for EGFR HCT116 % Inhibition: Western blot at MTT-IC50; for EGFR HCT116 RQ (relative quantification): Western blot at MTT-IC50, control RQ 4.0382
[4] = test system: MCF7 (breast) cancer cell line; assay: MTT antiproliferative assay, MCF7; format: cell-based; details: for IC50: Homo sapiens, MCF7, 72 h, read-out: IC50 ± SE, MCF7; for SI (selectivity index), MCF7: IC50 of RPE1 relative to that of MCF7
[5] = test system: RPE1 (normal human immortalized retinal pigment epithelial cell line); assay: MTT assay against normal RPE1 cells; format: cell-based; details: RPE-1, read-out: IC50 ± SE, RPE1
EGFR [6] = biological target: T3, EGFR; assay: EGFR Western blot in MCF7; format: cell-based; details: for EGFR MCF7 % Inhibition: Western blot at MTT-IC50; for EGFR MCF7 RQ (relative quantification): Western blot at MTT-IC50, control RQ 4.226
COX-1 = biological target: T4, COX-1 (Ovis aries, UniProt P05979); assay: COX-1 inhibitor screening kit; format: biochemical
T4 sequence (P05979 25-600): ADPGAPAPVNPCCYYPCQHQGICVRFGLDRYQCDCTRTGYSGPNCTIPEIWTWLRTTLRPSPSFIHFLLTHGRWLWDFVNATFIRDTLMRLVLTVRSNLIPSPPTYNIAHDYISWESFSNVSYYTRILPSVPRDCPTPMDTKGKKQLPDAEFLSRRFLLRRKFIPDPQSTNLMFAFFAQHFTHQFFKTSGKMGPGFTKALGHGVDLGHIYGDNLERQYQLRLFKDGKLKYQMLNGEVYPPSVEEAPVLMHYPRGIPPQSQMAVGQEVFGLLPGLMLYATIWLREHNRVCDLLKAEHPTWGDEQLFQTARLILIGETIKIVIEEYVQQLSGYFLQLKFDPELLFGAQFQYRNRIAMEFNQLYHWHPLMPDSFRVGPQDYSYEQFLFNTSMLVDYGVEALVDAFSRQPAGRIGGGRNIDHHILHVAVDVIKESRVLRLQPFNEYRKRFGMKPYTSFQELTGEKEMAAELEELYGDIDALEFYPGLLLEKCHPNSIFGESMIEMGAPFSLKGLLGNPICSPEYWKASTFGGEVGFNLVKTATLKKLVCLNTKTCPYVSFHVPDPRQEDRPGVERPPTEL

[7] = test system: A431 (squamous skin) cancer cell line; assay: MTT antiproliferative assay, A431; format: cell-based; details: for IC50: Homo sapiens, A-431, 72 h, read-out: IC50 ± SE, A431; for SI (selectivity index), A431: IC50 of RPE1 relative to that of A431
VEGFR-2 [8] = biological target: T1, VEGFR-2; assay: VEGFR-2 Western blot in HCT116; format: cell-based; details: for VEGFR2 HCT116 % Inhibition: Western blot at MTT-IC50; for VEGFR2 HCT116 RQ (relative quantification): Western blot at MTT-IC50, control RQ 3.817
[9] = test system: SARS-CoV-2 (hCoV-19/Egypt/NRC-03/2020); details: SARS-CoV-2 / VERO-E6
[10] = test system: HCT116 (colon cancer cell line); assay: PI-flow cytometry cell cycle analysis; format: cell-based
[11] = test system: HCT116 (colon cancer cell line); assay: Annexin V-FITC apoptosis/necrosis study; format: cell-based; details: at MTT-IC50 of the agent

T3 sequence (P00533 25-1210): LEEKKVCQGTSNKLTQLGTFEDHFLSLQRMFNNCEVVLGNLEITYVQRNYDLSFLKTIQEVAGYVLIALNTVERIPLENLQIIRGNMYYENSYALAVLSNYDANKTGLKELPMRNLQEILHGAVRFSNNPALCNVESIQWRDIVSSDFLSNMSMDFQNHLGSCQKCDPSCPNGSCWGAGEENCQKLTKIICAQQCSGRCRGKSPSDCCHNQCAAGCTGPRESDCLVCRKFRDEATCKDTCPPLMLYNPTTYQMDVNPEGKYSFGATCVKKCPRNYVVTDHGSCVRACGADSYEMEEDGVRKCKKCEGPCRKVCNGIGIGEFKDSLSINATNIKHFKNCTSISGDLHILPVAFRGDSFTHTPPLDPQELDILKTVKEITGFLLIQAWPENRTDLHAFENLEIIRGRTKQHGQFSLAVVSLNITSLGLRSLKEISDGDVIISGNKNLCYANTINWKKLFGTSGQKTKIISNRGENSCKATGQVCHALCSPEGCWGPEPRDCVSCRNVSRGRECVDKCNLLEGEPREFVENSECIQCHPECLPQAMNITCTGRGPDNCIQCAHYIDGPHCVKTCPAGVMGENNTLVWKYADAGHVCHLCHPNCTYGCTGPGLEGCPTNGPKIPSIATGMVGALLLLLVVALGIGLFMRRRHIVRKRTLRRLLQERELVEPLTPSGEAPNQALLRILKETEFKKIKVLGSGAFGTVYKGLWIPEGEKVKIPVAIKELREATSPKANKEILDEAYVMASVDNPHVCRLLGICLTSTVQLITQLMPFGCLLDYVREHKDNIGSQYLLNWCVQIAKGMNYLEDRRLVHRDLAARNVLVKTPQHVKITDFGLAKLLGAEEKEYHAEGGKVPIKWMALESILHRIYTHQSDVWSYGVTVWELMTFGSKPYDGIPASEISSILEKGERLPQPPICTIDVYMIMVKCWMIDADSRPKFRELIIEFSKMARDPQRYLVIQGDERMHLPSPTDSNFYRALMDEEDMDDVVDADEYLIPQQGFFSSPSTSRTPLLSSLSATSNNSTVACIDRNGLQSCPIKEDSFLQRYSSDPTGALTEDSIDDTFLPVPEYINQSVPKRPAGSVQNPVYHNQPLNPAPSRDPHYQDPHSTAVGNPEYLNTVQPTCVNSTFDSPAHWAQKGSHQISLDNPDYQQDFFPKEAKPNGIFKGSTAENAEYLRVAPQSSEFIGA
T1 sequence (P35968 20-1356): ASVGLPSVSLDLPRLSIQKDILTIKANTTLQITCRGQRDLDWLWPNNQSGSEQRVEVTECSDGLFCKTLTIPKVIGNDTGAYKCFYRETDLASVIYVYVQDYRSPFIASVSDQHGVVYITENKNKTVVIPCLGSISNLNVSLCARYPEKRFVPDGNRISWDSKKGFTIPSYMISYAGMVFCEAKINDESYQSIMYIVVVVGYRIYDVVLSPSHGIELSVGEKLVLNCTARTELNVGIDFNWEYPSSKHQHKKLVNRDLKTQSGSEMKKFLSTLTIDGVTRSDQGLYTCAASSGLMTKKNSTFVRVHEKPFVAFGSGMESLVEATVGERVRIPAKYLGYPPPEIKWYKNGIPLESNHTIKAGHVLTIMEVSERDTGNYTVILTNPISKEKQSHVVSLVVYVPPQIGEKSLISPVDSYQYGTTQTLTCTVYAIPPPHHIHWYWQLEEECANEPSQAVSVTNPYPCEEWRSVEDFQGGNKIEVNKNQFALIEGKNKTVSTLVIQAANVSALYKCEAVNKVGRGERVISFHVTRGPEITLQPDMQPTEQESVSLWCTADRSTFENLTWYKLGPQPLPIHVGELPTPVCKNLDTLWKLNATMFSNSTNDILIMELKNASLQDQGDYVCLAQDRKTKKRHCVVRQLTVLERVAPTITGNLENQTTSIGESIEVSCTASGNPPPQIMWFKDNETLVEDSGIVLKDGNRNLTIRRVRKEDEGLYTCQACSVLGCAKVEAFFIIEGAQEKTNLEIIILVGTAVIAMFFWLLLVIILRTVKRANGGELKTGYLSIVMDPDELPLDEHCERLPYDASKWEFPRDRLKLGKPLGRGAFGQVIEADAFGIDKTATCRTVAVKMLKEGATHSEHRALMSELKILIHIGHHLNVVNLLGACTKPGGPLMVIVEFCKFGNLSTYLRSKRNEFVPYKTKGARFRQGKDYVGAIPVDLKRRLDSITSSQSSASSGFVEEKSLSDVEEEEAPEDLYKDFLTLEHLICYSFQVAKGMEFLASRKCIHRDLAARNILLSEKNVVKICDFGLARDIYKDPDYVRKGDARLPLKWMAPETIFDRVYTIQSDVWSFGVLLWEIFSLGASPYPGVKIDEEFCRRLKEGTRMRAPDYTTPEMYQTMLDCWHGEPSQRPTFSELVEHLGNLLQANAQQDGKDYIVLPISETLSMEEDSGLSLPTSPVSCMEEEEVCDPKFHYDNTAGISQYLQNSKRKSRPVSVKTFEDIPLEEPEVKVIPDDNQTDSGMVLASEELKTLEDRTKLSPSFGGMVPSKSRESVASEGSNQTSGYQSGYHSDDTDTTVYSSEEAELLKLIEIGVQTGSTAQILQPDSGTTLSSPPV

COc1ccc(/C=C2\CN(C(=O)c3cc(Cl)ccc3OC(C)=O)C/C(=C\c3ccc(OC)cc3)C2=O)cc1 [Compound 5m, 2-[3,5-Bis((E)-4-methoxybenzylidene)-4-oxopiperidine-1-carbonyl]-4-chlorophenyl acetate]
IC50 [1]: 5.94 ± 0.46 µM | SI (selectivity index), HCT116 [1]: 1.22 | VEGFR2 MCF7 % Inhibition (VEGFR-2 [2]): 47.2% | VEGFR2 MCF7 RQ (relative quantification) (VEGFR-2 [2]): 1.966 | IC50 (COX-2): 0.319 µM | SI = IC50(COX-1)/IC50(COX-2) (COX-2): 0.452–0.467 | SI = IC50(COX-1)/IC50(COX-2) (COX-2; listed as 5 m): 0.458 | EGFR HCT116 % Inhibition (EGFR [3]): 68.5% | EGFR HCT116 RQ (relative quantification) (EGFR [3]): 1.273 | IC50 [4]: 5.06 ± 0.45 µM | SI (selectivity index), MCF7 [4]: 1.43 | IC50 [5]: 7.23 ± 0.51 µM | EGFR MCF7 % Inhibition (EGFR [6]): 62.4% | EGFR MCF7 RQ (relative quantification) (EGFR [6]): 1.59 | IC50 (COX-1): 0.146 µM | IC50 [7]: 3.81 ± 0.29 µM | SI (selectivity index), A431 [7]: 1.9 | VEGFR2 HCT116 % Inhibition (VEGFR-2 [8]): 70.4% | VEGFR2 HCT116 RQ (relative quantification) (VEGFR-2 [8]): 1.13 | SI = CC50/IC50 [9]: 138.7

COc1ccc(/C=C2\CN(C(=O)c3cc(Cl)ccc3OC(C)=O)C/C(=C\c3ccc(OC)c(OC)c3)C2=O)cc1OC [Compound 5n, 2-[3,5-Bis((E)-3,4-dimethoxybenzylidene)-4-oxopiperidine-1-carbonyl]-4-chlorophenyl acetate]
IC50 [1]: 1.49 ± 0.17 µM | SI (selectivity index), HCT116 [1]: 5.30 | VEGFR2 MCF7 % Inhibition (VEGFR-2 [2]): 37.2% | VEGFR2 MCF7 RQ (relative quantification) (VEGFR-2 [2]): 2.338 | IC50 (COX-2): 0.361 µM | SI = IC50(COX-1)/IC50(COX-2) (COX-2): 0.452 | EGFR HCT116 % Inhibition (EGFR [3]): 60.1% | EGFR HCT116 RQ (relative quantification) (EGFR [3]): 1.610 | IC50 [4]: 4.39 ± 0.4 µM | SI (selectivity index), MCF7 [4]: 1.79 | IC50 [5]: 7.87 ± 0.62 µM | EGFR MCF7 % Inhibition (EGFR [6]): 56.8% | EGFR MCF7 RQ (relative quantification) (EGFR [6]): 1.825 | IC50 (COX-1): 0.163 µM | IC50 [7]: 0.444 ± 0.04 µM | SI (selectivity index), A431 [7]: 17.7 | VEGFR2 HCT116 % Inhibition (VEGFR-2 [8]): 37.4% | VEGFR2 HCT116 RQ (relative quantification) (VEGFR-2 [8]): 2.389 | SI = CC50/IC50 [9]: 88.9

CC(=O)Oc1ccc(Cl)cc1C(=O)N1C/C(=C\c2cccs2)C(=O)/C(=C/c2cccs2)C1 [Compound 5p, 4-Chloro-2-[(3E,5E)-4-oxo-3,5-bis(thiophen-2-ylmethylene)piperidine-1-carbonyl]phenyl acetate]
IC50 [1]: 6.38 ± 0.44 µM | SI (selectivity index), HCT116 [1]: 3.12 | VEGFR2 MCF7 % Inhibition (VEGFR-2 [2]): 40.7% | VEGFR2 MCF7 RQ (relative quantification) (VEGFR-2 [2]): 2.209 | IC50 (COX-2): 0.138 µM | SI = IC50(COX-1)/IC50(COX-2) (COX-2): 2.065 | EGFR HCT116 % Inhibition (EGFR [3]): 56.3% | EGFR HCT116 RQ (relative quantification) (EGFR [3]): 1.763 | IC50 [4]: 6.25 ± 0.61 µM | SI (selectivity index), MCF7 [4]: 3.18 | IC50 [5]: 19.9 ± 1.21 µM | EGFR MCF7 % Inhibition (EGFR [6]): 59.0% | EGFR MCF7 RQ (relative quantification) (EGFR [6]): 1.731 | IC50 (COX-1): 0.285 µM | IC50 [7]: 6.25 ± 0.49 µM | SI (selectivity index), A431 [7]: 3.2 | VEGFR2 HCT116 % Inhibition (VEGFR-2 [8]): 39.6% | VEGFR2 HCT116 RQ (relative quantification) (VEGFR-2 [8]): 2.304 | SI = CC50/IC50 [9]: 233.6

CCN(CC)CCNC(=O)c1c(C)[nH]c(/C=C2\C(=O)Nc3ccc(F)cc32)c1C [Sunitinib, reference compound]
phase of cell cycle arrest ([10]; PI-flow cytometry): S-phase | DNA content (%) G0-G1 ([10]; at MTT-IC50 of the agent): 46.18% | DNA content (%) G2/M ([10]; at MTT-IC50 of the agent): 7.59% | DNA content (%) Pre-G1 ([10]; at MTT-IC50 of the agent): 31.69% | DNA content (%) S ([10]; at MTT-IC50 of the agent): 46.23% | Apoptosis (%) Early [11]: 2.54% | Apoptosis (%) Late [11]: 21.69% | Apoptosis (%) Total [11]: 31.69% | Necrosis (%) [11]: 7.46%
